“And” between values parts separate entries of the source, which are not always exact repeats. Equal values may be shown once.
Tested on: 598228-144-R-J1-PDC complex spheroids, viability
Experiment: Anticancer human tumor 598228-144-R-J1-PDC patient-derived serous endometrial adenocarcinoma cell line growth inhibition [CLK]
Conditions: for viability, T/C: stronger effect = lower value
In short: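 Patient-derived tumor cells grown as complex spheroids with HUVEC endothelial cells and mesenchymal stem cells, treated with drug combinations. Concentrations descend in half-log steps from near clinical Cmax, or from 10 microM if Cmax unknown.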

[1] = curve of first compound, second compound 0.0316 µM
[2] = curve of first compound, second compound 0.1 µM
[3] = curve of first compound, second compound 0.316 µM
[4] = curve of first compound, second compound 1 µM
[5] = curve of first compound, second compound 3.16 µM
[6] = curve of first compound, second compound 10 µM
[7] = second compound 0.0316 µM, first compound 0.00316 µM
[8] = second compound 0.0316 µM, first compound 0.01 µM
[9] = second compound 0.0316 µM, first compound 0.0316 µM
[10] = second compound 0.0316 µM, first compound 0.1 µM
[11] = second compound 0.0316 µM, first compound 0.316 µM
[12] = second compound 0.0316 µM, first compound 1 µM
[13] = second compound 0.1 µM, first compound 0.00316 µM
[14] = second compound 0.1 µM, first compound 0.01 µM
[15] = second compound 0.1 µM, first compound 0.0316 µM
[16] = second compound 0.1 µM, first compound 0.1 µM
[17] = second compound 0.1 µM, first compound 0.316 µM
[18] = second compound 0.1 µM, first compound 1 µM
[19] = second compound 0.316 µM, first compound 0.00316 µM
[20] = second compound 0.316 µM, first compound 0.01 µM
[21] = second compound 0.316 µM, first compound 0.0316 µM
[22] = second compound 0.316 µM, first compound 0.1 µM
[23] = second compound 0.316 µM, first compound 0.316 µM
[24] = second compound 0.316 µM, first compound 1 µM
[25] = second compound 1 µM, first compound 0.00316 µM
[26] = second compound 1 µM, first compound 0.01 µM
[27] = second compound 1 µM, first compound 0.0316 µM
[28] = second compound 1 µM, first compound 0.1 µM
[29] = second compound 1 µM, first compound 0.316 µM
[30] = second compound 1 µM, first compound 1 µM
[31] = second compound 3.16 µM, first compound 0.00316 µM
[32] = second compound 3.16 µM, first compound 0.01 µM
[33] = second compound 3.16 µM, first compound 0.0316 µM
[34] = second compound 3.16 µM, first compound 0.1 µM
[35] = second compound 3.16 µM, first compound 0.316 µM
[36] = second compound 3.16 µM, first compound 1 µM
[37] = second compound 10 µM, first compound 0.00316 µM
[38] = second compound 10 µM, first compound 0.01 µM
[39] = second compound 10 µM, first compound 0.0316 µM
[40] = second compound 10 µM, first compound 0.1 µM
[41] = second compound 10 µM, first compound 0.316 µM
[42] = second compound 10 µM, first compound 1 µM
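Note: spheroids exposed to compounds for seven days before readout.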
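Throughout, for viability, T/C: 100% = DMSO vehicle control wells.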

COC1C=CCC(C)C(C)S(=O)(=O)NC(=O)c2ccc3c(c2)N(CC2CCC21)CC1(CCCc2cc(Cl)ccc21)CO3 (stereo not drawn)
viability, T/C (compound 0.0316 µM): 106% and 108%
viability, T/C (compound 0.1 µM): 80.2% and 85.4%
viability, T/C (compound 0.316 µM): 61% and 66.5%
viability, T/C (compound 1 µM): 55.6% and 58.4%
viability, T/C (compound 3.16 µM): 56.3% and 56.4%
viability, T/C (compound 10 µM): 34.4% and 20.1%
IC50 (curve of compound): 1870 nM and 1810 nM

CCc1c2c(nc3ccc(O)cc13)-c1cc3c(c(=O)n1C2)COC(=O)[C@]3(O)CC + CN1CCN(c2cc(C(=O)Nc3cc4cc(-c5cnn(C)c5)ccc4cn3)ccn2)CC1
IC50 [1]: 68.3 nM
IC50 [2]: 96 nM
IC50 [3]: < 3.16 nM
IC50 [4]: < 3.16 nM
IC50 [5]: < 3.16 nM
IC50 [6]: < 3.16 nM
viability, T/C [7]: 104%
viability, T/C [8]: 91.3%
viability, T/C [9]: 73.8%
viability, T/C [10]: 39.2%
viability, T/C [11]: 16.6%
viability, T/C [12]: 13.1%
viability, T/C [13]: 152%
viability, T/C [14]: 121%
viability, T/C [15]: 84%
viability, T/C [16]: 47.4%
viability, T/C [17]: 23.3%
viability, T/C [18]: 9.49%
viability, T/C [19]: 17.4%
viability, T/C [20]: 17.4%
viability, T/C [21]: 18.3%
viability, T/C [22]: 13.1%
viability, T/C [23]: 5.94%
viability, T/C [24]: 5.35%
viability, T/C [25]: 1.34%
viability, T/C [26]: 0.98%
viability, T/C [27]: 2.66%
viability, T/C [28]: 0.5%
viability, T/C [29]: 2.92%
viability, T/C [30]: 4.75%
viability, T/C [31]: 1.44%
viability, T/C [32]: 1.88%
viability, T/C [33]: 0.95%
viability, T/C [34]: 1.2%
viability, T/C [35]: 2.83%
viability, T/C [36]: 4.75%
viability, T/C [37]: 0.83%
viability, T/C [38]: 0.62%
viability, T/C [39]: 2.12%
viability, T/C [40]: 0.62%
viability, T/C [41]: 6.02%
viability, T/C [42]: 4.41%

CC(CO)NC(=O)c1cc(-c2ccc(Cl)cc2)nn(-c2cnn(C)c2)c1=O (stereo not drawn) + CNC(=O)c1ccc(Nc2nc(OC3CCCC3)c3c(-c4ccc5nc(C)oc5c4)c[nH]c3n2)c(OC)c1
IC50 [1]: > 10000 nM
IC50 [2]: > 10000 nM
IC50 [3]: > 10000 nM
IC50 [4]: > 10000 nM
IC50 [5]: > 10000 nM
IC50 [6]: > 10000 nM
viability, T/C [9]: 124%
viability, T/C [10]: 102%
viability, T/C [11]: 102%
viability, T/C [12]: 104%
viability, T/C (second compound 0.0316 µM, first compound 3.16 µM): 92.8%
viability, T/C (second compound 0.0316 µM, first compound 10 µM): 94.4%
viability, T/C [15]: 94.9%
viability, T/C [16]: 107%
viability, T/C [17]: 96.5%
viability, T/C [18]: 103%
viability, T/C (second compound 0.1 µM, first compound 3.16 µM): 106%
viability, T/C (second compound 0.1 µM, first compound 10 µM): 83.8%
viability, T/C [21]: 111%
viability, T/C [22]: 104%
viability, T/C [23]: 92.8%
viability, T/C [24]: 96.5%
viability, T/C (second compound 0.316 µM, first compound 3.16 µM): 106%
viability, T/C (second compound 0.316 µM, first compound 10 µM): 96.8%
viability, T/C [27]: 111%
viability, T/C [28]: 104%
viability, T/C [29]: 112%
viability, T/C [30]: 105%
viability, T/C (second compound 1 µM, first compound 3.16 µM): 111%
viability, T/C (second compound 1 µM, first compound 10 µM): 87.6%
viability, T/C [33]: 85.7%
viability, T/C [34]: 94.7%
viability, T/C [35]: 92.2%
viability, T/C [36]: 102%
viability, T/C (second compound 3.16 µM, first compound 3.16 µM): 94.8%
viability, T/C (second compound 3.16 µM, first compound 10 µM): 81.4%
viability, T/C [39]: 90.4%
viability, T/C [40]: 77%
viability, T/C [41]: 95.8%
viability, T/C [42]: 77.5%
viability, T/C (second compound 10 µM, first compound 3.16 µM): 112%
viability, T/C (second compound 10 µM, first compound 10 µM): 83.1%

CCN1CCN(Cc2ccc(Nc3ncc(F)c(-c4cc(F)c5nc(C)n(C(C)C)c5c4)n3)nc2)CC1 + CN1CCN(c2cc(C(=O)Nc3cc4cc(-c5cnn(C)c5)ccc4cn3)ccn2)CC1
IC50 [1]: > 1000 nM
IC50 [2]: > 1000 nM
IC50 [3]: < 3.16 nM
IC50 [4]: < 3.16 nM
IC50 [5]: < 3.16 nM
IC50 [6]: < 3.16 nM
viability, T/C [7]: 126%
viability, T/C [8]: 113%
viability, T/C [9]: 119%
viability, T/C [10]: 112%
viability, T/C [11]: 116%
viability, T/C [12]: 103%
viability, T/C [13]: 125%
viability, T/C [14]: 122%
viability, T/C [15]: 115%
viability, T/C [16]: 115%
viability, T/C [17]: 123%
viability, T/C [18]: 107%
viability, T/C [19]: 17.8%
viability, T/C [20]: 17.6%
viability, T/C [21]: 15.1%
viability, T/C [22]: 19.9%
viability, T/C [23]: 20.7%
viability, T/C [24]: 24.4%
viability, T/C [25]: 1.42%
viability, T/C [26]: 5.67%
viability, T/C [27]: 1.8%
viability, T/C [28]: 1.54%
viability, T/C [29]: 1.56%
viability, T/C [30]: 6.64%
viability, T/C [31]: 1.54%
viability, T/C [32]: 3.86%
viability, T/C [33]: 2.86%
viability, T/C [34]: 1.78%
viability, T/C [35]: 2.22%
viability, T/C [36]: 5.76%
viability, T/C [37]: 1%
viability, T/C [38]: 3.61%
viability, T/C [39]: 0.93%
viability, T/C [40]: 1.25%
viability, T/C [41]: 3.23%
viability, T/C [42]: 3.64%
